# Laboratory results: the RepoRT retention time repository (doi:10.1021/ac101825k)
# Experiment: RP, Waters Symmetry C18, 100 × 2.1 mm; A: water + 0.1% formic acid, pH 3; B: acetonitrile + 0.1% formic acid, pH 3; gradient (min/%B) 0/5 24/95 29/95 29.1/5
# Details: stereoisomer not certain
row,Structure (SMILES),LC retention time
1,"Oc1cc(O)c2c(c1)OC(c1ccc(O)c(O)c1)C(O)C2 (single isomer, unassigned; (-)) [(-)-Epicatechin]",7.82 min
2,"COc1cc(C=CC(=O)O)cc(OC)c1OC [3,4,5-Trimethoxycinnamic_acid]",12.3 min
3,Cc1cc(=O)oc2cc(OC3OC(C(=O)O)C(O)C(O)C3O)ccc12 (stereo unspecified) [4-Methylumbelliferylglucuronide],8.77 min
4,Nc1ncnc2c1ncn2C1OC(CO)C(O)C1O (stereo unspecified) [Adenosine],1.52 min
5,O=c1cc(-c2ccc(O)c(-c3c(O)cc(O)c4c(=O)cc(-c5ccc(O)cc5)oc34)c2)oc2cc(O)cc(O)c12 [Amentoflavone],14.2 min
6,CN1CCc2cccc3c2C1Cc1ccc(O)c(O)c1-3 (stereo unspecified) [Apomorphine],7.2 min
7,COc1ccc2cc3[n+](cc2c1OC)CCc1cc2c(cc1-3)OCO2 [Berberine],9.9 min
8,COc1c2ccoc2cc2oc(=O)ccc12 [Bergapten],14.5 min
9,CN1CCc2cc3c(cc2C1C1OC(=O)c2c1ccc1c2OCO1)OCO3 (stereo unspecified) [Bicuculline],8.51 min
10,COc1ccc(-c2coc3cc(O)cc(O)c3c2=O)cc1 [Biochanin_A],16.1 min
11,CN1Cc2c(ccc3c2OCO3)C2C(O)Cc3cc4c(cc3C21)OCO4 (stereo unspecified) [Chelidonine],9.5 min
12,C=CC1CN2CCC1CC2C(O)c1ccnc2ccccc12 (stereo unspecified) [Cinchonine],3.47 min
13,CCC1CN2CCc3cc(OC)c(OC)cc3C2CC1CC1NCCc2cc(OC)c(OC)cc21 (stereo unspecified) [Emetine],7.62 min
14,CCC1OC(=O)C(C)C(OC2CC(C)(OC)C(O)C(C)O2)C(C)C(OC2OC(C)CC(N(C)C)C2O)C(C)(O)CC(C)C(=O)C(C)C(O)C1(C)O (stereo unspecified) [Erythromycin],11.2 min
15,O=c1c(-c2ccc(O)cc2)coc2cc(O)cc(O)c12 [Genistein],13.1 min
16,Cc1nccc2c1[nH]c1ccccc12 [Harmane],7.81 min
17,CC(C)C(NC(=O)Cc1c[nH]c2ccccc12)C(=O)O (stereo unspecified) [IAA-Val],12.1 min
18,O=C(O)c1c[nH]c2ccccc12 [Indole-3-carboxylic_acid],10.5 min
19,O=c1c(O)c(-c2ccc(O)cc2)oc2cc(O)cc(O)c12 [Kaempferol],13.3 min
20,c1coc(CNc2ncnc3nc[nH]c23)c1 [Kinetin],6.57 min
21,COc1ccc(CC2c3cc(OC)c(OC)cc3CCN2C)cc1OC (stereo unspecified) [Laudanosine],8.39 min

row,Structure (SMILES),LC retention time
1,CC1OC(OC2C(Oc3cc(O)c4c(c3)OC(c3ccc(O)cc3)CC4=O)OC(CO)C(O)C2O)C(O)C(O)C1O (stereo unspecified) [Naringin],10.5 min
2,NC(=O)c1ccc[n+](C2OC(COP(=O)(O)OP(=O)(O)OCC3OC(n4cnc5c(N)ncnc54)C(O)C3O)C(O)C2O)c1 (stereo unspecified) [Nicotinamide_dinucleotide],1.2 min
3,NC(Cc1ccccc1)C(=O)O (stereo unspecified) [Phenylalanine],2.27 min
4,O=C(CCc1ccc(O)cc1)c1c(O)cc(O)cc1OC1OC(CO)C(O)C(O)C1O (stereo unspecified) [Phlorizin],11.1 min
5,O=c1c(O)c(-c2ccc(O)c(O)c2)oc2cc(O)cc(O)c12 [Quercetin],12.2 min
6,COC(=O)C1C2CC3c4[nH]c5cc(OC)ccc5c4CCN3CC2CC(OC(=O)c2cc(OC)c(OC)c(OC)c2)C1OC (stereo unspecified) [Reserpine],12.6 min
7,Oc1ccc(C=Cc2cc(O)cc(O)c2)cc1 [Resveratrol],11.5 min
8,COC1C=COC2(C)Oc3c(C)c(O)c4c(O)c(c(C=NN5CCN(C)CC5)c(O)c4c3C2=O)NC(=O)C(C)=CC=CC(C)C(O)C(C)C(O)C(C)C(OC(C)=O)C1C (stereo unspecified) [Rifampicin],15.1 min
9,C=C(C)C1Cc2c(ccc3c2OC2COc4cc(OC)c(OC)cc4C2C3=O)O1 (stereo unspecified) [Rotenone],18 min
10,CC1OC(OCC2OC(Oc3c(-c4ccc(O)c(O)c4)oc4cc(O)cc(O)c4c3=O)C(O)C(O)C2O)C(O)C(O)C1O (stereo unspecified) [Rutin],9.72 min
11,"COc1ccc2c(c1OC)C(=O)OC2C1c2c(cc3c(c2OC)OCO3)CCN1C (stereo unspecified) [S,R-Noscapine]",10 min
12,Cc1cc2nc3cc(C)c(N)cc3[n+](-c3ccccc3)c2cc1N [Safranin],10.9 min
13,CC1NCCc2cc(O)c(O)cc21 (stereo unspecified) [Salsolinol],1.08 min
14,COc1cc(C=CC(=O)OCC[N+](C)(C)C)cc(OC)c1O [Sinapine],6.46 min
15,Oc1ccc(CC2NCCc3cc(O)c(O)cc32)cc1O (stereo unspecified) [Tetrahydropapaveroline],1.14 min
16,NC(Cc1c[nH]c2ccccc12)C(=O)O (stereo unspecified) [Tryptophan],4.07 min
17,NCCc1ccc(O)cc1 [Tyramine],8.45 min
18,CC1OC(OC2C(c3c(O)cc(O)c4c(=O)cc(-c5ccc(O)cc5)oc34)OC(CO)C(O)C2O)C(O)C(O)C1O (stereo unspecified) [Vitexin-2''-O-rhamnoside],9.58 min
19,COc1cc(O)c(CC=C(C)C)c(O)c1C(=O)C=Cc1ccc(O)cc1 [Xanthohumol],18.5 min
20,COc1ccccc1C(=O)O [o-Anisic acid],10.1 min
